What was measured:
[1] = system: patients with various DSM diagnoses; settings: human, in vivo
[2] = system: behaviorally-diagnosed psychiatric conditions (DSM categories); parameters: species or system human; settings: in vivo;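 on use code of agent in 301.7 Antisocial Personality Disorder: N marks novel agent found effective in subject subgroups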;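 on use code of agent in 301.83 Borderline Personality Disorder: N marks novel agent found effective in subject subgroups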;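 on use in 307.50 Eating Disorder NOS: N marks novel agent found effective in subject subgroups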;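 on use in 307.51 Bulimia Nervosa: N marks novel agent found effective in subject subgroups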;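 on use in 313.81 Oppositional Defiant Disorder: N marks novel agent found effective in subject subgroups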
[3] = system: patients with alpha frequency deficits / theta excess; parameters: species or system human; settings: in vivo

C[C@H](N)Cc1ccccc1 [D-amphetamine]
5 patients: false negatives [1]

CC(NC(C)(C)C)C(=O)c1cccc(Cl)c1 (stereo not drawn) [BUPROPRION (LONG ACTING)]
N: use code of agent in 301.20 Schizoid Personality Disorder [2] | use code of agent in 301.22 Schizotypal Personality Disorder [2] | use code of agent in 301.4 Obsessive-Compulsive Personality Disorder [2] | use code of agent in 301.50 Histrionic Personality Disorder [2] | use code of agent in 301.6 Dependent Personality Disorder [2] | use code of agent in 301.7 Antisocial Personality Disorder [2] | use code of agent in 301.82 Avoidant Personality Disorder [2] | use code of agent in 301.83 Borderline Personality Disorder [2] | use code of agent in 302.71 Hypoactive Sexual Desire Disorder [2] | use code of agent in 307.42 Primary Insomnia [2] | use code of agent in 311 Depressive Disorder NOS [2] | use code of agent in 316 Psychological Factors Affecting Medical Condition, Atypical Asthma [2] | use code of agent in 316 Psychological Factors Affecting Medical Condition, Neurodermatitis [2] | use code of agent in Bipolar I Disorder [2] | use in 294.8 Amnestic Disorder [2] | use in 294.9 Cognitive Disorder NOS [2] | use in 296.89 Bipolar II Disorder [2] | use in 299.80 Pervasive Developmental Disorder NOS [2] | use in 300.00 Anxiety Disorder NOS [2] | use in 300.02 Generalized Anxiety Disorder [2] | use in 300.22 Agoraphobia Without History of Panic Disorder [2] | use in 300.23 Social Phobia [2] | use in 300.29 Specific Phobia [2] | use in 300.3 Obsessive-Compulsive Disorder [2] | use in 301.13 Cyclothymic Disorder [2] | use in 307.1 Anorexia Nervosa [2] | use in 307.50 Eating Disorder NOS [2] | use in 307.51 Bulimia Nervosa [2] | use in 307.9 Communication Disorder NOS [2] | use in 309.21 Separation Anxiety Disorder [2] | use in 309.81 Posttraumatic Stress Disorder [2] | use in 312.30 Impulse-Control Disorder NOS [2] | use in 312.31 Pathological Gambling [2] | use in 312.34 Intermittent Explosive Disorder [2] | use in 312.39 Trichotillomania [2] | use in 312.8 Conduct Disorder [2] | use in 313.81 Oppositional Defiant Disorder [2] | use in 315.9 Learning Disorder NOS [2] | use in Attention-Deficit/Hyperactivity Disorder [2] | use in Panic Disorder [2] | use of the agent in the diagnostic category (C = common use; N = novel use from rEEG features) [2]

Clc1cccc(Cl)c1N=C1NCCN1 [CLONIDINE]
N: use code of agent in 316 Psychological Factors Affecting Medical Condition, Hypertensive Disorder NOS [2]

C[C@H](N)Cc1ccccc1 [DEXEDRINE]
N: use code of agent in 294.9 Cognitive Disorder NOS [2] | use code of agent in 296.90 Mood Disorder NOS [2] | use code of agent in 300.4 Dysthymic Disorder [2] | use code of agent in 301.13 Cyclothymic Disorder [2] | use code of agent in 307.1 Anorexia Nervosa [2] | use code of agent in 307.50 Eating Disorder NOS [2] | use code of agent in 307.51 Bulimia Nervosa [2] | use code of agent in 312.30 Impulse-Control Disorder NOS [2] | use code of agent in 312.31 Pathological Gambling [2] | use code of agent in 312.39 Trichotillomania [2] | use code of agent in 312.8 Conduct Disorder [2] | use code of agent in 313.81 Oppositional Defiant Disorder [2] | use code of agent in 315.9 Learning Disorder NOS [2]

CC(C)CC(N(C)C)C1(c2ccc(Cl)cc2)CCC1 (stereo not drawn) [SILBTRMIN]
N: use code of agent in 312.34 Intermittent Explosive Disorder [2] | use in 307.22 Chronic Motor or Vocal Tic Disorder [2] | use of the agent in the diagnostic category (C = common use; N = novel use from rEEG features) [2]

Cc1ccc(-c2nc3ccc(C)cn3c2CC(=O)N(C)C)cc1 [ZOLIPIDEM]
N: use of the agent in the diagnostic category (C = common use; N = novel use from rEEG features) [2]

NC(=O)C[S+]([O-])C(c1ccccc1)c1ccccc1 (stereo not drawn) [MODAFINIL]
N: use code of agent in 294.8 Amnestic Disorder [2]

GABA [reference compound]
N: agent found effective in 300.00 Anxiety Disorder NOS [2] | agent found effective in 300.02 Generalized Anxiety Disorder [2] | agent found effective in 300.22 Agoraphobia Without History of Panic Disorder [2] | agent found effective in 300.23 Social Phobia [2] | agent found effective in 300.29 Specific Phobia [2] | agent found effective in 300.3 Obsessive-Compulsive Disorder [2] | agent found effective in 309.81 Posttraumatic Stress Disorder [2] | agent found effective in Panic Disorder [2] | use code of agent in 301.4 Obsessive-Compulsive Personality Disorder [2] | use code of agent in 301.7 Antisocial Personality Disorder [2] | use code of agent in 301.82 Avoidant Personality Disorder [2] | use code of agent in 301.83 Borderline Personality Disorder [2] | use code of agent in 307.42 Primary Insomnia [2] | use code of agent in 316 Psychological Factors Affecting Medical Condition, Neurodermatitis [2] | use in 300.00 Anxiety Disorder NOS [2] | use in 300.02 Generalized Anxiety Disorder [2] | use in 300.22 Agoraphobia Without History of Panic Disorder [2] | use in 300.23 Social Phobia [2] | use in 300.29 Specific Phobia [2] | use in 300.3 Obsessive-Compulsive Disorder [2] | use in 307.1 Anorexia Nervosa [2] | use in 307.22 Chronic Motor or Vocal Tic Disorder [2] | use in 307.50 Eating Disorder NOS [2] | use in 307.51 Bulimia Nervosa [2] | use in 309.21 Separation Anxiety Disorder [2] | use in 309.81 Posttraumatic Stress Disorder [2] | use in 313.81 Oppositional Defiant Disorder [2] | use in Panic Disorder [2] | use of the agent in the diagnostic category (C = common use; N = novel use from rEEG features) [2]

O=C1Nc2ccc(Cl)cc2C(c2ccccc2Cl)=NC1O (stereo not drawn) [lorazepam]
only slightly responsive: response of chronic insomnia of patient 4 [3]

N=C(N)NC(=O)Cc1c(Cl)cccc1Cl [[…]]
N: use code of agent in 316 Psychological Factors Affecting Medical Condition, Hypertensive Disorder NOS [2]

NC(=O)CC[C@H](N)C(=O)O [GLUTAMINE, reference compound]
N: agent found effective in 299.00 Autistic Disorder [2] | agent found effective in 300.00 Anxiety Disorder NOS [2] | agent found effective in 300.02 Generalized Anxiety Disorder [2] | agent found effective in 300.22 Agoraphobia Without History of Panic Disorder [2] | agent found effective in 300.23 Social Phobia [2] | agent found effective in 300.29 Specific Phobia [2] | agent found effective in 300.3 Obsessive-Compulsive Disorder [2] | agent found effective in 309.81 Posttraumatic Stress Disorder [2] | agent found effective in Panic Disorder [2] | use in Dementia of the Alzheimer's Type [2]
successfully treated: clinical response of granddaughter [3]

N[C@@H](Cc1ccc(O)cc1)C(=O)O [L-tyrosine]
successfully treated: clinical response of granddaughter [3]

NC12CC3CC(CC(C3)C1)C2 [AMANTADINE]
N: use code of agent in 312.30 Impulse-Control Disorder NOS [2] | use code of agent in 312.8 Conduct Disorder [2] | use code of agent in 313.81 Oppositional Defiant Disorder [2] | use code of agent in 315.9 Learning Disorder NOS [2] | use code of agent in Attention-Deficit/Hyperactivity Disorder [2]

CC(NC(C)(C)C)C(=O)c1cccc(Cl)c1 (stereo not drawn) [Bupropion]
responded positively: clinical response of patients 1-4 [3]

COCCc1ccc(OCC(O)CNC(C)C)cc1 (stereo not drawn) [METOPOLOL]
N: use code of agent in 296.89 Bipolar II Disorder [2] | use code of agent in 296.90 Mood Disorder NOS [2] | use code of agent in 301.13 Cyclothymic Disorder [2] | use code of agent in 301.20 Schizoid Personality Disorder [2] | use code of agent in 301.22 Schizotypal Personality Disorder [2] | use code of agent in 301.4 Obsessive-Compulsive Personality Disorder [2] | use code of agent in 301.50 Histrionic Personality Disorder [2] | use code of agent in 301.6 Dependent Personality Disorder [2] | use code of agent in 301.7 Antisocial Personality Disorder [2] | use code of agent in 301.82 Avoidant Personality Disorder [2] | use code of agent in 301.83 Borderline Personality Disorder [2] | use code of agent in 307.42 Primary Insomnia [2] | use code of agent in 311 Depressive Disorder NOS [2] | use code of agent in 312.34 Intermittent Explosive Disorder [2] | use code of agent in 312.39 Trichotillomania [2] | use code of agent in 316 Psychological Factors Affecting Medical Condition, Hypertensive Disorder NOS [2] | use code of agent in 316 Psychological Factors Affecting Medical Condition, Irritable Bowel Syndrome [2] | use code of agent in 316 Psychological Factors Affecting Medical Condition, Neurodermatitis [2] | use code of agent in Bipolar I Disorder [2] | use code of agent in Major Depressive Disorder, Recurrent [2] | use code of agent in Major Depressive Disorder, Single Episode [2] | use in 294.9 Cognitive Disorder NOS [2] | use in 299.00 Autistic Disorder [2] | use in 299.80 Pervasive Developmental Disorder NOS [2] | use in 300.00 Anxiety Disorder NOS [2] | use in 300.02 Generalized Anxiety Disorder [2] | use in 300.22 Agoraphobia Without History of Panic Disorder [2] | use in 300.23 Social Phobia [2] | use in 300.3 Obsessive-Compulsive Disorder [2] | use in 307.1 Anorexia Nervosa [2] | use in 307.20 Tic Disorder NOS [2] | use in 307.22 Chronic Motor or Vocal Tic Disorder [2] | use in 307.23 Tourette's Disorder [2] | use in 307.50 Eating Disorder NOS [2] | use in 307.51 Bulimia Nervosa [2] | use in 309.21 Separation Anxiety Disorder [2] | use in 309.81 Posttraumatic Stress Disorder [2] | use in 312.30 Impulse-Control Disorder NOS [2] | use in 312.31 Pathological Gambling [2] | use in 312.8 Conduct Disorder [2] | use in 313.81 Oppositional Defiant Disorder [2] | use in 315.9 Learning Disorder NOS [2] | use in Attention-Deficit/Hyperactivity Disorder [2] | use in Panic Disorder [2] | use of the agent in the diagnostic category (C = common use; N = novel use from rEEG features) [2]

CN[C@@H](C)Cc1ccccc1 [METHAMPHETAMINE]
N: use code of agent in 294.9 Cognitive Disorder NOS [2] | use code of agent in 296.90 Mood Disorder NOS [2] | use code of agent in 300.4 Dysthymic Disorder [2] | use code of agent in 301.13 Cyclothymic Disorder [2] | use code of agent in 307.1 Anorexia Nervosa [2] | use code of agent in 307.51 Bulimia Nervosa [2] | use code of agent in 312.30 Impulse-Control Disorder NOS [2] | use code of agent in 312.31 Pathological Gambling [2] | use code of agent in 312.39 Trichotillomania [2] | use code of agent in 312.8 Conduct Disorder [2] | use code of agent in 313.81 Oppositional Defiant Disorder [2] | use code of agent in 315.9 Learning Disorder NOS [2]

NC(=O)N1c2ccccc2C=Cc2ccccc21 [carbamazepine]
responded positively: clinical response of patients 1-4 [3]

From patent publication US7962204B2 (priority 2001, dated 2011)
